For the data set, the system named is rodent lifetime carcinogenesis bioassay, tumor incidence TD50. Briefly: carcinogenic potency in animals, long-term in vivo studies, CPDB compilation (AID 1745844).

The source made the active and inactive calls. The rule behind the calls is not given here.

The TD50 is the dose at which the toxic effect under study appears in half of the subjects. Consider `ClCc1ccccn1`, for which the TD50 is 9790 mg/kg/day (inactive) (mouse, strain B6C3F1, females, by gavage, site: any site (literature study), lesion: several types, types named in the paper, dosed 99 weeks, study length 104 weeks); 2170 mg/kg/day (mouse, strain B6C3F1, females, by gavage, site: lung, lesion: alveolar/bronchiolar adenoma + alveolar/bronchiolar carcinoma, dosed 99 weeks, study length 104 weeks); 2940 mg/kg/day (mouse, strain B6C3F1, males, by gavage, site: lung, lesion: alveolar/bronchiolar adenoma + alveolar/bronchiolar carcinoma, dosed 99 weeks, study length 104 weeks); 114 mg/kg/day (inactive) (rat, strain Fischer 344, females, by gavage, site: any site (literature study), lesion: several types, types named in the paper, dosed 99 weeks, study length 105 weeks); 671 mg/kg/day (rat, strain Fischer 344, males, by gavage, site: any site (literature study), lesion: several types, types named in the paper, dosed 99 weeks, study length 105 weeks); 515 mg/kg/day (inactive) (rat, strain Fischer 344, males, by gavage, site: subcutaneous tissue, lesion: fibroma, dosed 99 weeks, study length 105 weeks). Besides, where the note is “mouse, strain B6C3F1, males, by gavage, site: any site (literature study), lesion: several types, types named in the paper, dosed 99 weeks, study length 104 weeks”, the carcinogen call was “negative (inactive)”.

On to `NCCCCCCCCCCC(=O)O`, for which the TD50 (mouse, strain B6C3F1, females, in feed, site: any site (literature study), lesion: several types, types named in the paper, dosed 103 weeks, study length 109 weeks) was 15600 mg/kg/day (inactive); the TD50 (mouse, strain B6C3F1, females, in feed, site: liver, lesion: hepatocellular adenoma + hepatocellular carcinoma + neoplastic nodule, dosed 103 weeks, study length 109 weeks) turned out to be 37900 mg/kg/day; the TD50 (mouse, strain B6C3F1, females, in feed, site: lung, lesion: alveolar/bronchiolar adenoma + alveolar/bronchiolar carcinoma, dosed 103 weeks, study length 109 weeks) turned out to be 18800 mg/kg/day; the TD50 (mouse, strain B6C3F1, males, in feed, site: all sites, lesion: malignant lymphoma, dosed 103 weeks, study length 109 weeks) is 4970 mg/kg/day (inactive); the TD50 (mouse, strain B6C3F1, males, in feed, site: any site (literature study), lesion: several types, types named in the paper, dosed 103 weeks, study length 109 weeks) amounted to 6500 mg/kg/day; the TD50 (mouse, strain B6C3F1, males, in feed, site: liver, lesion: hepatocellular adenoma + hepatocellular carcinoma + neoplastic nodule, dosed 103 weeks, study length 109 weeks) worked out at 6250 mg/kg/day. For the same compound, the TD50 (rat, strain Fischer 344, females, in feed, site: any site (literature study), lesion: several types, types named in the paper, dosed 104 weeks, study length 109 weeks) was 1250 mg/kg/day (inactive); the TD50 (rat, strain Fischer 344, females, in feed, site: liver, lesion: hepatocellular adenoma + hepatocellular carcinoma + neoplastic nodule, dosed 104 weeks, study length 109 weeks) came out at 44600 mg/kg/day; the TD50 (rat, strain Fischer 344, males, in feed, site: any site (literature study), lesion: several types, types named in the paper, dosed 104 weeks, study length 109 weeks) was 802 mg/kg/day; the TD50 (rat, strain Fischer 344, males, in feed, site: liver + urinary bladder, lesion: hepatocellular carcinoma + neoplastic nodule + transitional-cell carcinoma, dosed 104 weeks, study length 109 weeks) stood at 833 mg/kg/day; the TD50 (rat, strain Fischer 344, males, in feed, site: liver, lesion: hepatocellular adenoma + hepatocellular carcinoma + neoplastic nodule, dosed 104 weeks, study length 109 weeks) was 1100 mg/kg/day; the TD50 (rat, strain Fischer 344, males, in feed, site: liver, lesion: hepatocellular carcinoma + neoplastic nodule, dosed 104 weeks, study length 109 weeks) was 1100 mg/kg/day. Also, the TD50 was 1290 mg/kg/day (rat, strain Fischer 344, males, in feed, site: liver, lesion: neoplastic nodule, dosed 104 weeks, study length 109 weeks); 2910 mg/kg/day (rat, strain Fischer 344, males, in feed, site: mammary gland, lesion: fibroadenoma, dosed 104 weeks, study length 109 weeks); 3170 mg/kg/day (rat, strain Fischer 344, males, in feed, site: urinary bladder, lesion: transitional-cell carcinoma, dosed 104 weeks, study length 109 weeks).

Take `O=Nc1ccc(NO)cc1`: the TD50 runs as follows: (mouse, strain B6C3F1, females, in feed, site: any site (literature study), lesion: several types, types named in the paper, dosed 104 weeks, study length 105 weeks) 6710 mg/kg/day (inactive); (mouse, strain B6C3F1, females, in feed, site: liver, lesion: hepatocellular adenoma + hepatocellular carcinoma + neoplastic nodule, dosed 104 weeks, study length 105 weeks) 656 mg/kg/day; (mouse, strain B6C3F1, females, in feed, site: lung, lesion: alveolar/bronchiolar adenoma + alveolar/bronchiolar carcinoma, dosed 104 weeks, study length 105 weeks) 6660 mg/kg/day; (mouse, strain B6C3F1, males, in feed, site: any site (literature study), lesion: several types, types named in the paper, dosed 104 weeks, study length 105 weeks) 936 mg/kg/day (inactive); (mouse, strain B6C3F1, males, in feed, site: liver, lesion: hepatocellular adenoma + hepatocellular carcinoma + neoplastic nodule, dosed 104 weeks, study length 105 weeks) 1.23e+06 mg/kg/day; (rat, strain Fischer 344, females, in feed, site: urinary bladder, lesion: squamous-cell carcinoma + transitional-cell carcinoma + transitional-cell papilloma, dosed 104 weeks, study length 105 weeks) 106 mg/kg/day. Besides, the TD50 reads like this: (rat, strain Fischer 344, females, in feed, site: urinary bladder, lesion: transitional-cell carcinoma, dosed 104 weeks, study length 105 weeks) 182 mg/kg/day; (rat, strain Fischer 344, males, in feed, site: any site (literature study), lesion: several types, types named in the paper, dosed 104 weeks, study length 105 weeks) 349 mg/kg/day (inactive); (rat, strain Fischer 344, males, in feed, site: liver, lesion: hepatocellular adenoma + hepatocellular carcinoma + neoplastic nodule, dosed 104 weeks, study length 105 weeks) 1130 mg/kg/day.

The values above are taken from PubChem BioAssay AID1745844 (Carcinogenic Potency Database (CPDB), 2022).
